Test results as given in BindingDB's records for doi:10.7270/Q2TX3CTT (Broad Institute, 2010).
Structures can show the parent of a compound that is named as a salt.

Target: Glycogen synthase kinase-3 beta (Homo sapiens, UniProt P49841)
Experiment: GSK3beta kinase inhibitor potency, dose response, biochemical, luminescence, cell-free homogeneous, retest (AID 434954)

Glycogen synthase kinase-3 beta, sequence (P49841 whole entry): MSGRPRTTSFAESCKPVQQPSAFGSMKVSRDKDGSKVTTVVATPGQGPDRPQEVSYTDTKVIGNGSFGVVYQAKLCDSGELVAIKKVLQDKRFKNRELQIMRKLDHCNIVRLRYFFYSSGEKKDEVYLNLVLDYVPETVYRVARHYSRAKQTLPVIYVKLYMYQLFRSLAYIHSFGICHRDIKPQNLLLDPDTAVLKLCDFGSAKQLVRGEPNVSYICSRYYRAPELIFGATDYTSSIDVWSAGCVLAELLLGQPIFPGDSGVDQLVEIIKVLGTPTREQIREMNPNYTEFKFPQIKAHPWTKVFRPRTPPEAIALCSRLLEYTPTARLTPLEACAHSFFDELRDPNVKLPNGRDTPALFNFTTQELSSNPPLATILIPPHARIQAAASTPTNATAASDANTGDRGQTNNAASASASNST

Structure (SMILES) | EC50 [µM]
COC(=O)c1nnn(-c2nonc2N)c1CSCCO [1-(4-amino-1,2,5-oxadiazol-3-yl)-5-[(2-hydroxyethylthio)methyl]-4-triazolecarboxylic acid methyl ester] | 6.22
COC(=O)c1nnn(-c2nonc2N)c1CSc1ccccn1 [1-(4-amino-1,2,5-oxadiazol-3-yl)-5-[(2-pyridinylthio)methyl]-4-triazolecarboxylic acid methyl ester] | 21.1
CC(C)OC(=O)c1nnn(-c2nonc2N)c1CSc1ccccn1 [1-(4-amino-1,2,5-oxadiazol-3-yl)-5-[(2-pyridinylthio)methyl]-4-triazolecarboxylic acid propan-2-yl ester] | 54.1
Nc1nonc1-n1nnc(C(=O)NN=Cc2ccoc2)c1CSc1ccc(Cl)cc1 [1-(4-amino-1,2,5-oxadiazol-3-yl)-5-[(4-chlorophenyl)sulfanylmethyl]-N-(furan-3-ylmethylideneamino)triazole-4-carboxamide] | > 300
CN(C)Cc1c(C(=O)NN=Cc2ccoc2)nnn1-c1nonc1N [1-(4-amino-1,2,5-oxadiazol-3-yl)-5-[(dimethylamino)methyl]-N-(3-furanylmethylideneamino)-4-triazolecarboxamide] | 2.18
CCCN(CCC)Cc1c(C(=O)NN=Cc2ccoc2)nnn1-c1nonc1N [1-(4-amino-1,2,5-oxadiazol-3-yl)-5-[(dipropylamino)methyl]-N-(3-furanylmethylideneamino)-4-triazolecarboxamide] | 8.52
CCCN(CCC)Cc1c(C(=O)NN=CCCc2ccccc2)nnn1-c1nonc1N [1-(4-amino-1,2,5-oxadiazol-3-yl)-5-[(dipropylamino)methyl]-N-(3-phenylpropylideneamino)-4-triazolecarboxamide] | 7.47
CCCN(CCC)Cc1c(C(=O)NN=Cc2ccncc2)nnn1-c1nonc1N [1-(4-amino-1,2,5-oxadiazol-3-yl)-5-[(dipropylamino)methyl]-N-(pyridin-4-ylmethylideneamino)triazole-4-carboxamide] | 0.879
COC(=O)c1nnn(-c2nonc2N)c1CSc1nnc(N)s1 [1-(4-amino-1,2,5-oxadiazol-3-yl)-5-[[(5-amino-1,3,4-thiadiazol-2-yl)thio]methyl]-4-triazolecarboxylic acid methyl ester] | 40
Cc1c(C(=O)NN=Cc2ccccn2)nnn1-c1nonc1N [1-(4-amino-1,2,5-oxadiazol-3-yl)-5-methyl-N-(pyridin-2-ylmethylideneamino)triazole-4-carboxamide] | > 300
CCOC(=O)c1nnn(-c2nonc2N)c1-c1cccs1 [1-(4-amino-1,2,5-oxadiazol-3-yl)-5-thiophen-2-yl-4-triazolecarboxylic acid ethyl ester] | 11.7
COC(=O)c1nnn(-c2nonc2N)c1-c1cccs1 [1-(4-amino-1,2,5-oxadiazol-3-yl)-5-thiophen-2-yl-4-triazolecarboxylic acid methyl ester] | 26.2
Nc1nonc1-n1nnc(C(=O)NN=Cc2ccccc2O)c1CN1CCCC1 [1-(4-amino-1,2,5-oxadiazol-3-yl)-N'-[(E)-(6-oxo-1-cyclohexa-2,4-dienylidene)methyl]-5-(1-pyrrolidinylmethyl)-4-triazolecarbohydrazide] | 24.6
CCOc1ccccc1C=NNC(=O)c1nnn(-c2nonc2N)c1CN1CCCC1 [1-(4-amino-1,2,5-oxadiazol-3-yl)-N-[(2-ethoxyphenyl)methylideneamino]-5-(pyrrolidin-1-ylmethyl)triazole-4-carboxamide] | 1.06
COc1ccccc1C=NNC(=O)c1nnn(-c2nonc2N)c1CN(C)c1ccccc1 [1-(4-amino-1,2,5-oxadiazol-3-yl)-N-[(2-methoxyphenyl)methylideneamino]-5-[(N-methylanilino)methyl]triazole-4-carboxamide] | 4.14
CC(C)(C)C(=O)c1sc(Nc2ccccc2)nc1N [1-(4-amino-2-anilino-1,3-thiazol-5-yl)-2,2-dimethyl-1-propanone] | 1
CCOc1cccc(-c2c(C(=O)NN=C(C)c3cccs3)nnn2-c2nonc2N)c1 [1-(4-azanyl-1,2,5-oxadiazol-3-yl)-5-(3-ethoxyphenyl)-N-(1-thiophen-2-ylethylideneamino)-1,2,3-triazole-4-carboxamide] | 96.9
Nc1nonc1-n1nnc(C(=O)NN=Cc2ccc(O)cc2)c1CN1CCCCCC1 [1-(4-azanyl-1,2,5-oxadiazol-3-yl)-5-(azepan-1-ylmethyl)-N'-[(4-oxidanylidenecyclohexa-2,5-dien-1-ylidene)methyl]-1,2,3-triazole-4-carbohydrazide] | 1.85
CCCCCOc1ccc(C=NNC(=O)c2nnn(-c3nonc3N)c2CN2CCCCCC2)cc1 [1-(4-azanyl-1,2,5-oxadiazol-3-yl)-5-(azepan-1-ylmethyl)-N-[(4-pentoxyphenyl)methylideneamino]-1,2,3-triazole-4-carboxamide] | 9.79
CCCN(CCC)Cc1c(C(=O)NN=Cc2ccc(C)o2)nnn1-c1nonc1N [1-(4-azanyl-1,2,5-oxadiazol-3-yl)-5-[(dipropylamino)methyl]-N-[(5-methylfuran-2-yl)methylideneamino]-1,2,3-triazole-4-carboxamide] | > 300
CCCN(CCC)Cc1c(C(=O)NN=C/C(C)=C\c2ccccc2)nnn1-c1nonc1N [1-(4-azanyl-1,2,5-oxadiazol-3-yl)-5-[(dipropylamino)methyl]-N-[[(Z)-2-methyl-3-phenyl-prop-2-enylidene]amino]-1,2,3-triazole-4-carboxamide] | > 300

Structure (SMILES) | EC50 [µM]
Nc1nonc1-n1nnc(C(=O)NN=Cc2ccccn2)c1-c1ccccc1 [1-(4-azanyl-1,2,5-oxadiazol-3-yl)-5-phenyl-N-(pyridin-2-ylmethylideneamino)-1,2,3-triazole-4-carboxamide] | 65.6
Nc1nonc1-n1nnc(C(=O)NN=Cc2ccoc2)c1CSc1ccccc1 [1-(4-azanyl-1,2,5-oxadiazol-3-yl)-N-(furan-3-ylmethylideneamino)-5-(phenylsulfanylmethyl)-1,2,3-triazole-4-carboxamide] | > 300
Nc1nonc1-n1nnc(C(=O)NN=Cc2ccc(Cl)cc2Cl)c1CN1CCCC1 [1-(4-azanyl-1,2,5-oxadiazol-3-yl)-N-[(2,4-dichlorophenyl)methylideneamino]-5-(pyrrolidin-1-ylmethyl)-1,2,3-triazole-4-carboxamide] | > 300
Nc1nonc1-n1nnc(C(=O)NN=Cc2ccccc2F)c1CN1CCOCC1 [1-(4-azanyl-1,2,5-oxadiazol-3-yl)-N-[(2-fluorophenyl)methylideneamino]-5-(morpholin-4-ylmethyl)-1,2,3-triazole-4-carboxamide] | 92.1
Nc1nonc1-n1nnc(C(=O)NN=Cc2cccc(O)c2)c1CN1CCCC1 [1-(4-azanyl-1,2,5-oxadiazol-3-yl)-N-[(3-hydroxyphenyl)methylideneamino]-5-(pyrrolidin-1-ylmethyl)-1,2,3-triazole-4-carboxamide] | 12.8
CCCN(CCC)Cc1c(C(=O)NN=Cc2ccc(Br)cc2)nnn1-c1nonc1N [1-(4-azanyl-1,2,5-oxadiazol-3-yl)-N-[(4-bromophenyl)methylideneamino]-5-[(dipropylamino)methyl]-1,2,3-triazole-4-carboxamide] | > 300
Nc1nonc1-n1nnc(C(=O)NN=Cc2c(Cl)cccc2Cl)c1CN1CCOCC1 [1-(4-azanyl-1,2,5-oxadiazol-3-yl)-N-[[2,6-bis(chloranyl)phenyl]methylideneamino]-5-(morpholin-4-ylmethyl)-1,2,3-triazole-4-carboxamide] | 55.2
CN(C)Cc1c(C(=O)NN=Cc2ccccc2OCc2c(F)cccc2Cl)nnn1-c1nonc1N [1-(4-azanyl-1,2,5-oxadiazol-3-yl)-N-[[2-[(2-chloranyl-6-fluoranyl-phenyl)methoxy]phenyl]methylideneamino]-5-[(dimethylamino)methyl]-1,2,3-triazole-4-carboxamide] | 0.116
C/C(C=NNC(=O)c1nnn(-c2nonc2N)c1CN1CCCCC1)=C\c1ccccc1 [1-(4-azanyl-1,2,5-oxadiazol-3-yl)-N-[[(E)-2-methyl-3-phenyl-prop-2-enylidene]amino]-5-(piperidin-1-ylmethyl)-1,2,3-triazole-4-carboxamide] | 28.6
COc1cc(NC(=S)Nc2ccccn2)c(OC)cc1Cl [1-(4-chloranyl-2,5-dimethoxy-phenyl)-3-pyridin-2-yl-thiourea] | 12.3
O=C(Nc1ccc(Cl)cc1)Nc1ccccn1 [1-(4-chlorophenyl)-3-(2-pyridinyl)urea] | 43.7
CCCc1c(NC(=O)Nc2ccc(F)cc2)cnn1-c1ccccc1 [1-(4-fluorophenyl)-3-(1-phenyl-5-propylpyrazol-4-yl)urea] | > 300
COc1ccc(N2CC(C(=O)Nc3cc(C)ccn3)CC2=O)cc1 (stereo unspecified) [1-(4-methoxyphenyl)-N-(4-methylpyridin-2-yl)-5-oxopyrrolidine-3-carboxamide] | 46.6
COc1ccc2occ(C(C)=O)c2c1 [1-(5-methoxy-3-benzofuranyl)ethanone] | > 300
O=C(COc1ccccc1)N1CCN(S(=O)(=O)c2cccs2)CC1 [1-(phenoxyacetyl)-4-(2-thienylsulfonyl)piperazine] | > 300
CC(C)N1C(=O)C(=CNCc2cccnc2)C(=O)NC1=S [1-Isopropyl-5-[1-[(pyridin-3-ylmethyl)-amino]-meth-(E)-ylidene]-2-thioxo-dihydro-pyrimidine-4,6-dione] | > 300
COc1ccc(-n2c(=O)c3c4c(sc3n3c(=S)[nH]nc23)CCC4)cc1 [1-Mercapto-4-(4-methoxy-phenyl)-7,8-dihydro-4H,6H-9-thia-2,3,4,9b-tetraaza-cyclopenta[b]-as-indace n-5-one] | 61.7
O=C1NC(=O)N(CCc2ccc(F)cc2)C(=O)C1=CNN1CCCCC1 [1-[2-(4-Fluoro-phenyl)-ethyl]-5-[1-(piperidin-1-ylamino)-meth-(Z)-ylidene]-pyrimidine-2,4,6-trione] | > 300
CCc1ccc(CNC(=O)C2CCC(=O)N(CCc3ccc(Cl)cc3)C2)nc1 (stereo unspecified) [1-[2-(4-chlorophenyl)ethyl]-N-[(5-ethyl-2-pyridinyl)methyl]-6-oxo-3-piperidinecarboxamide] | > 300
CC1(C)N=C(N)N=C(N)N1c1ccc(Oc2ccc(Cl)cc2)c(Cl)c1 [1-[3-chloro-4-(4-chlorophenoxy)phenyl]-6,6-dimethyl-1,3,5-triazine-2,4-diamine;hydrochloride] | > 300
